According to patent publication US4880941A, “Trittum labelled compound, its preparation and its use in the determination of the affinity of retinoids for their cellular receptor” (priority 1986, dated 1989):

Assays:
[1] = molecular target: T1, cRABP (cellular Retinoic Acid-Binding Protein) (Rattus norvegicus, UniProt P62966); assay: Competition test of cold ligand against radioactive ligand for fixation on cRABP
Experimental: These competition tests are carried out in the following manner: a fixed amount of the radioactive ligand (corresponding essentially to the half-saturation of the fixed amount of receptor which will be employed), is mixed with increasing quantities of cold ligand (nonradioactive). The receptor is then added and there is determined the amount of radioactive ligand fixed at equilibrium (in % of initial fixation in the absence of cold ligand, for the amount of receptor considered).
Starting from the competition curves of FIGS. 2 to 7, there is determined in each case the IC50 (concentration of cold ligand reducing the attachment of 50% of the tritiated ligand). This IC50 value permits the calculation in each case of the dissociation constant at equilibrium (Kd) for the cold ligand.

[2] = molecular target: T1, cRABP (cellular Retinoic Acid-Binding Protein); assay: Saturation test: fixation of ligand on soluble cRABP of rat testicle homogenate; design: a homogenate of rat testicles (organ rich in cRABP); from tissue; host or cells: rat testicles (homogenate), inferred from the saturation test; conditions: for nonspecific fixation (% of the total fixation): in the presence of a large excess (1 μM) of retinoic acid, ligand up to 50 nM
Experimental: The total fixation (nonspecific +specific) (curva a), is obtained by incubation of increasing concentrations (up to a maximum of 50 nM) of the compound of the present invention with a constant quantity (0.3 ml) of a homogenate of rat testicles (organ rich in cRABP). […] An incubation time for 2 hours is necessary for the establishment of equilibrium conditions.
Once equilibrium is reached, the cRABP-tritiated ligand complex is separated from the nonlinked ligand by filtration on an exclusion gel Sephadex G25 column (Bio-Rad econo columns, 0.5×20 cm): the complex is eluted (elution peak at 2.5 ml), while the nonlinked ligand is retained in total on the column. A total separation is thus effected between the linked and nonlinked product. The eluation is made directly in the scintillation tubes and the radioactivity is measured by counting.
On FIG. 1, there is represented, on the abscissa, the initial concentrations of the ligand being studied, and on the ordinate, the concentrations at equilibrium of the ligand-receptor complex.
The difference between curves a (total fixation) and c (nonspecific fixation) gives the curve of specific fixation, curve b. The analysis of this curve provides the dissociation constant at equilibrium, (Kd), which is the concentration of product necessary for 50% saturation of the soluble receptor. This constant is a measure of the affinity of the ligand for its receptor, Kd being inversely proportional to affinity, (the weaker Kd is, the greater is the affinity).

T1 sequence (P62966 whole entry): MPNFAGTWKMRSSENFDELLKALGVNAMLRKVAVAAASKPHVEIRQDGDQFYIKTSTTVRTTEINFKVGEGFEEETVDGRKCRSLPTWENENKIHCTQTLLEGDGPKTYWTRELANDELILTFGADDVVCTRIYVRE

For `C/C(=C\c1ccc(C(=O)O)cc1)c1ccc2c(c1)C(C)(C)CCC2(C)C` [compound B], the Kd [1] was 16 nM and the Kd ([1]; Kd of the cold ligand, radioactive ligand: tritiated retinoic acid, calculated from IC50 of competition curve) was 20 nM.
`CC1(C)CCC(C)(C)c2cc(-c3cc4ccc(C(=O)O)cc4s3)ccc21` [compound A, 2-(5,6,7,8-tetrahydro-5,5,8,8-tetramethyl-2-naphthyl)-6-benzo [b] thiophene carboxylic acid] showed a Kd [1] of 6 nM.
With `[3H]c1cc2c(cc1-c1cc3ccc(C(=O)O)cc3s1)C(C)(C)CCC2(C)C` [Example 1, 2-(3-^3 H-5,6,7,8-tetrahydro-5,5,8,8-tetramethyl-2-naphthyl)-6-benzo [b] thiophene carboxylic acid] the “nonspecific fixation (character)” value ([2]; in the concentration range employed (up to 50 nM)) was “linear and nonsaturable”, the “nonspecific fixation (% of the total fixation)” value [2] was “less than 10%” and the “specific fixation (character)” value ([2]; saturation test, rat testicle homogenate) was “saturable and reversible”. It also gave a Kd ([2]; saturation test, rat testicle homogenate, 2 hours incubation, nonlinear regression (Clark equation), read-out: Kd (dissociation constant at equilibrium)) of 2.7 ± 0.5 nM.
With `CC1=C(/C=C/C(C)=C/C=C/C(C)=C/C(=O)O)C(C)(C)CCC1` [retinoic acid] the “nonspecific fixation (% of the total fixation)” value [2] was “approximately 25%”.
